Measurements published in US9593149B2, “Amylin and calcitonin receptor agonist” (Novo Nordisk A/S, priority 2014, dated 2017).
Values after ≈ are worked out from the molar mass of the structure shown. Peptide text beside a SMILES is read from it. * marks the point of attachment. C18 diacid = O=C(O)CCCCCCCCCCCCCCCCC(=O)*

Assay: Assay (IV) determination of solubility
Format: physicochemical
Protocol: Assay (IV)—Determination of Solubility
The mimylin peptide was dissolved in water at ˜500 nmol/ml and mixed 1:1 with a series of buffers (100 mM glycylglycine pH 3.0, 100 mM glycylglycine pH 4.0, 100 mM glycylglycine pH 5.0, 100 mM bistrispropane pH 6.0, 100 mM bistrispropane pH 6.5, 100 mM bistrispropane pH 7.0, 100 mM bistrispropane pH 7.5, 100 mM bistrispropane pH 8.0).

Row | Solubility (pH 3.0) | solubility at 18 h (pH 4.0) | Solubility (pH 5.0) | Solubility (pH 6.0) | Solubility (pH 6.5) | Solubility (pH 7.0) | Solubility (pH 7.5) | Solubility (pH 8.0) | Solubility (pH 4.0) | SMILES
1 | ≧200 μM | 182 µM (≈ 687 µg/mL) | ≧200 μM | ≧200 μM | ≧200 μM | ≧200 μM | ≧200 μM | ≧200 μM |  | CC[C@H](C)[C@H](NC(=O)[C@H](C)NC(=O)[C@@H](NC(=O)[C@H](CO)NC(=O)[C@H](CC(C)C)NC(=O)[C@H](CCC(=O)O)NC(=O)[C@H](CO)NC(=O)[C@H](C)NC(=O)[C@H](CCC(=O)O)NC(=O)CCCCCCCCCCCCCCCCC(=O)O)[C@@H](C)O)C(=O)N[C@@H](CC(C)C)C(=O)NCC(=O)N[C@@H](CCCNC(=N)N)C(=O)N[C@@H](CC(C)C)C(=O)N[C@@H](CO)C(=O)N[C@@H](C)C(=O)N[C@@H](CCC(=O)O)C(=O)N[C@@H](CC(C)C)C(=O)N[C@@H](Cc1cnc[nH]1)C(=O)N[C@@H](CCC(=O)O)C(=O)N[C@@H](CC(C)C)C(=O)N[C@@H](C)C(=O)N[C@H](C(=O)N[C@@H](CC(C)C)C(=O)N1CCC[C@H]1C(=O)N[C@@H](CCCNC(=N)N)C(=O)N[C@H](C(=O)N[C@@H](CCC(=O)O)C(=O)N[C@H](C(=O)NCC(=O)N1CCC[C@H]1C(=O)N[C@@H](CCC(=O)O)C(=O)N[C@@H](CO)C(=O)N1CCC[C@H]1C(N)=O)[C@@H](C)O)[C@@H](C)O)[C@@H](C)O [compound 10, [N-terminal(C18 diacid), 9I]mimylin] ({C18 diacid}-EASELSTAILGRLSAELHELATLPRTETGPESP-NH2)
2 | ≧200 μM |  | ≧200 μM | ≧200 μM | ≧200 μM | ≧200 μM | ≧200 μM | ≧200 μM | ≧200 μM | CC[C@H](C)[C@H](NC(=O)[C@H](CCC(=O)O)NC(=O)[C@H](C)NC(=O)[C@H](CO)NC(=O)[C@H](CC(C)C)NC(=O)[C@H](CCCNC(=N)N)NC(=O)CNC(=O)[C@H](CC(C)C)NC(=O)[C@H](C)NC(=O)[C@H](C)NC(=O)[C@@H](NC(=O)[C@H](CO)NC(=O)[C@H](CC(C)C)NC(=O)[C@H](CCC(=O)O)NC(=O)[C@H](CO)NC(=O)[C@H](C)NC(=O)[C@H](CCC(=O)O)NC(=O)CCCCCCCCCCCCCCCCC(=O)O)[C@@H](C)O)C(=O)N[C@@H](Cc1cnc[nH]1)C(=O)N[C@@H](CCC(=O)O)C(=O)N[C@@H](CC(C)C)C(=O)N[C@@H](C)C(=O)N[C@H](C(=O)N[C@@H](CC(C)C)C(=O)N1CCC[C@H]1C(=O)N[C@@H](CCCNC(=N)N)C(=O)N[C@H](C(=O)N[C@@H](CCC(=O)O)C(=O)N[C@H](C(=O)NCC(=O)N1CCC[C@H]1C(=O)N[C@@H](CCC(=O)O)C(=O)N[C@@H](CO)C(=O)N1CCC[C@H]1C(N)=O)[C@@H](C)O)[C@@H](C)O)[C@@H](C)O [compound 11, [N-terminal(C18 diacid), 17I]mimylin] ({C18 diacid}-EASELSTAALGRLSAEIHELATLPRTETGPESP-NH2)
3 | ≧200 μM |  | ≧200 μM | ≧200 μM | ≧200 μM | ≧200 μM | ≧200 μM | ≧200 μM | ≧200 μM | CC[C@H](C)[C@H](NC(=O)[C@H](CCC(=O)O)NC(=O)[C@H](Cc1cnc[nH]1)NC(=O)[C@H](CC(C)C)NC(=O)[C@H](CCC(=O)O)NC(=O)[C@H](C)NC(=O)[C@H](CO)NC(=O)[C@H](CC(C)C)NC(=O)[C@H](CCCNC(=N)N)NC(=O)CNC(=O)[C@H](CC(C)C)NC(=O)[C@H](C)NC(=O)[C@H](C)NC(=O)[C@@H](NC(=O)[C@H](CO)NC(=O)[C@H](CC(C)C)NC(=O)[C@H](CCC(=O)O)NC(=O)[C@H](CO)NC(=O)[C@H](C)NC(=O)[C@H](CCC(=O)O)NC(=O)CCCCCCCCCCCCCCCCC(=O)O)[C@@H](C)O)C(=O)N[C@@H](C)C(=O)N[C@H](C(=O)N[C@@H](CC(C)C)C(=O)N1CCC[C@H]1C(=O)N[C@@H](CCCNC(=N)N)C(=O)N[C@H](C(=O)N[C@@H](CCC(=O)O)C(=O)N[C@H](C(=O)NCC(=O)N1CCC[C@H]1C(=O)N[C@@H](CCC(=O)O)C(=O)N[C@@H](CO)C(=O)N1CCC[C@H]1C(N)=O)[C@@H](C)O)[C@@H](C)O)[C@@H](C)O [compound 12, [N-terminal(C18 diacid), 20I]mimylin] ({C18 diacid}-EASELSTAALGRLSAELHEIATLPRTETGPESP-NH2)
4 | ≧200 μM |  | ≧200 μM | ≧200 μM | ≧200 μM | ≧200 μM | ≧200 μM | ≧200 μM | ≧200 μM | CC(C)C[C@H](NC(=O)[C@H](C)NC(=O)[C@@H](NC(=O)[C@H](CO)NC(=O)[C@H](CC(C)C)NC(=O)[C@H](CCC(=O)O)NC(=O)[C@H](CO)NC(=O)[C@H](C)NC(=O)[C@H](CCC(=O)O)NC(=O)CCCCCCCCCCCCCCCCC(=O)O)[C@@H](C)O)C(=O)N[C@@H](CC(C)C)C(=O)NCC(=O)N[C@@H](CCCNC(=N)N)C(=O)N[C@@H](CC(C)C)C(=O)N[C@@H](CO)C(=O)N[C@@H](C)C(=O)N[C@@H](CCC(=O)O)C(=O)N[C@@H](CC(C)C)C(=O)N[C@@H](Cc1cnc[nH]1)C(=O)N[C@@H](CCC(=O)O)C(=O)N[C@@H](CC(C)C)C(=O)N[C@@H](C)C(=O)N[C@H](C(=O)N[C@@H](CC(C)C)C(=O)N1CCC[C@H]1C(=O)N[C@@H](CCCNC(=N)N)C(=O)N[C@H](C(=O)N[C@@H](CCC(=O)O)C(=O)N[C@H](C(=O)NCC(=O)N1CCC[C@H]1C(=O)N[C@@H](CCC(=O)O)C(=O)N[C@@H](CO)C(=O)N1CCC[C@H]1C(N)=O)[C@@H](C)O)[C@@H](C)O)[C@@H](C)O [compound 14, [N-terminal(C18 diacid), 9L]mimylin] ({C18 diacid}-EASELSTALLGRLSAELHELATLPRTETGPESP-NH2)
5 | ≧200 μM |  | ≧200 μM | ≧200 μM | ≧200 μM | ≧200 μM | ≧200 μM | ≧200 μM | ≧200 μM | CC(C)C[C@H](NC(=O)[C@H](C)NC(=O)[C@H](CC(C)C)NC(=O)[C@@H](NC(=O)[C@H](CO)NC(=O)[C@H](CC(C)C)NC(=O)[C@H](CCC(=O)O)NC(=O)[C@H](CO)NC(=O)[C@H](C)NC(=O)[C@H](CCC(=O)O)NC(=O)CCCCCCCCCCCCCCCCC(=O)O)[C@@H](C)O)C(=O)NCC(=O)N[C@@H](CCCNC(=N)N)C(=O)N[C@@H](CC(C)C)C(=O)N[C@@H](CO)C(=O)N[C@@H](C)C(=O)N[C@@H](CCC(=O)O)C(=O)N[C@@H](CC(C)C)C(=O)N[C@@H](Cc1cnc[nH]1)C(=O)N[C@@H](CCC(=O)O)C(=O)N[C@@H](CC(C)C)C(=O)N[C@@H](C)C(=O)N[C@H](C(=O)N[C@@H](CC(C)C)C(=O)N1CCC[C@H]1C(=O)N[C@@H](CCCNC(=N)N)C(=O)N[C@H](C(=O)N[C@@H](CCC(=O)O)C(=O)N[C@H](C(=O)NCC(=O)N1CCC[C@H]1C(=O)N[C@@H](CCC(=O)O)C(=O)N[C@@H](CO)C(=O)N1CCC[C@H]1C(N)=O)[C@@H](C)O)[C@@H](C)O)[C@@H](C)O [compound 15, [N-terminal(C18 diacid), 8L]mimylin] ({C18 diacid}-EASELSTLALGRLSAELHELATLPRTETGPESP-NH2)
6 | ≧200 μM |  | ≧200 μM | ≧200 μM | ≧200 μM | ≧200 μM | ≧200 μM | ≧200 μM | ≧200 μM | CC(C)C[C@H](NC(=O)[C@H](C)NC(=O)[C@H](C)NC(=O)[C@@H](NC(=O)[C@H](Cc1cnc[nH]1)NC(=O)[C@H](CC(C)C)NC(=O)[C@H](CCC(=O)O)NC(=O)[C@H](CO)NC(=O)[C@H](C)NC(=O)[C@H](CCC(=O)O)NC(=O)CCCCCCCCCCCCCCCCC(=O)O)[C@@H](C)O)C(=O)NCC(=O)N[C@@H](CCCNC(=N)N)C(=O)N[C@@H](CC(C)C)C(=O)N[C@@H](CO)C(=O)N[C@@H](C)C(=O)N[C@@H](CCC(=O)O)C(=O)N[C@@H](CC(C)C)C(=O)N[C@@H](Cc1cnc[nH]1)C(=O)N[C@@H](CCC(=O)O)C(=O)N[C@@H](CC(C)C)C(=O)N[C@@H](C)C(=O)N[C@H](C(=O)N[C@@H](CC(C)C)C(=O)N1CCC[C@H]1C(=O)N[C@@H](CCCNC(=N)N)C(=O)N[C@H](C(=O)N[C@@H](CCC(=O)O)C(=O)N[C@H](C(=O)NCC(=O)N1CCC[C@H]1C(=O)N[C@@H](CCC(=O)O)C(=O)N[C@@H](CO)C(=O)N1CCC[C@H]1C(N)=O)[C@@H](C)O)[C@@H](C)O)[C@@H](C)O [compound 16, [N-terminal(C18 diacid), 6H]mimylin] ({C18 diacid}-EASELHTAALGRLSAELHELATLPRTETGPESP-NH2)
7 | ≧200 μM |  | ≧200 μM | ≧200 μM | ≧200 μM | ≧200 μM | ≧200 μM | ≧200 μM | ≧200 μM | CC(C)C[C@H](NC(=O)[C@H](C)NC(=O)[C@H](C)NC(=O)[C@@H](NC(=O)[C@H](CO)NC(=O)[C@H](Cc1cnc[nH]1)NC(=O)[C@H](CCC(=O)O)NC(=O)[C@H](CO)NC(=O)[C@H](C)NC(=O)[C@H](CCC(=O)O)NC(=O)CCCCCCCCCCCCCCCCC(=O)O)[C@@H](C)O)C(=O)NCC(=O)N[C@@H](CCCNC(=N)N)C(=O)N[C@@H](CC(C)C)C(=O)N[C@@H](CO)C(=O)N[C@@H](C)C(=O)N[C@@H](CCC(=O)O)C(=O)N[C@@H](CC(C)C)C(=O)N[C@@H](Cc1cnc[nH]1)C(=O)N[C@@H](CCC(=O)O)C(=O)N[C@@H](CC(C)C)C(=O)N[C@@H](C)C(=O)N[C@H](C(=O)N[C@@H](CC(C)C)C(=O)N1CCC[C@H]1C(=O)N[C@@H](CCCNC(=N)N)C(=O)N[C@H](C(=O)N[C@@H](CCC(=O)O)C(=O)N[C@H](C(=O)NCC(=O)N1CCC[C@H]1C(=O)N[C@@H](CCC(=O)O)C(=O)N[C@@H](CO)C(=O)N1CCC[C@H]1C(N)=O)[C@@H](C)O)[C@@H](C)O)[C@@H](C)O [compound 17, [N-terminal(C18 diacid), 5H]mimylin] ({C18 diacid}-EASEHSTAALGRLSAELHELATLPRTETGPESP-NH2)
